Reference: patent publication US8304425B2, “Pyrrolidinone, pyrrolidine-2,5-dione, pyrrolidine and thiosuccinimide derivatives, compositions and methods for treatment of cancer” (ArQule, Inc., priority 2007, dated 2012)
pIC50: −log10 of the molar value. Counter-ions that a name gives are not always drawn. Like-named read-outs stand apart in the source and are kept apart here. Where a SMILES comes first, the peptide text is derived from it. The star is where a group is joined. Cbz = O=C(OCc1ccccc1)*; CH2F = FC*

Key:
HT29 cells [1] = assay: MTS assay; assay type: cell-based; conditions: then 48 hours drug-free medium, MTS readout
Procedure: HT29 cells were seeded in 96-well plates at 1,800 cells/well overnight in medium with 10% FBS. The next day, cells were treated with increasing concentrations of compounds for 24 hours at 37° C. After the treatments, the compound-containing medium was removed, cells were washed twice with PBS, and incubated in drug-free medium containing 10% FBS for an additional 48 hours. After addition of MTS and PMS for 4 hours at concentrations of 2 mg/mL and 0.92 mg/mL, respectively, the results were quantitated by spectrophotometry at λ=490 nm and IC50 for each compound was determined.

[2] = target: T1, Recombinant unphosphorylated c-Met comprising residues 1038-1346 (Homo sapiens, UniProt P08581); assay: c-Met 33P assay; assay type: biochemical; conditions: 15 minutes preincubation, 100 μM ATP, IGF-1Rtide substrate, read-out: c-Met, p33 assay
T1 construct: The DNA fragment encoding the kinase domain (1038-1346) was inserted into Novagen vector pet28a; His6 (N); made in house; host or cells: E. coli BL21(DE3)RIL
T1 sequence (P08581 1038-1346): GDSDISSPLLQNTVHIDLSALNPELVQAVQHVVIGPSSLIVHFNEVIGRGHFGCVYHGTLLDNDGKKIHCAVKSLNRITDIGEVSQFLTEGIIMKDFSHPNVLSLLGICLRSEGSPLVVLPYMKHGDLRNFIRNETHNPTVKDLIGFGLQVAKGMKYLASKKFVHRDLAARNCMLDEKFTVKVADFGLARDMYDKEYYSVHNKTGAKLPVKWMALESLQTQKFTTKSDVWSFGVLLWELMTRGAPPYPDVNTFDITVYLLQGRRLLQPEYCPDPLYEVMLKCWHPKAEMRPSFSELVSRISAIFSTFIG
Excerpt: cDNA of full-length c-Met purchased from Origen Technologies was used as template for PCR amplification. The DNA fragment encoding the kinase domain (1038-1346) was inserted into Novagen vector pet28a between Nco1 and Sal1 sites. The primers were designed to contain a six-histidine tag to the N-terminus. In order to express dephosphorylated c-Met kinase protein, a tyrosine phosphatase PTP1B (1-283) was sequentially ligated into the made construct between Sal1 and NotI sites. A second ribosome binding site was incorporated in the PTP1B primer after the Sal1 site. The N-terminal His-tagged proteins were expressed in Circlegrow broth (Q-Biogen). The transformed E. coli cell line BL21(DE3)RIL (Stratagene) was cultured to OD=0.8 at 37° C. and induced with 0.3 mM of IPTG for overnight at 12° C. The co-expressed protein was purified by metal-chelation chromatography followed by anion and cation columns. In brief, 4 liters of cells were lysed by sonication in 140 ml buffer containing 20 mM MOPS pH=6.5, 200 mM NaCl, 7.5% glycerol, 0.1% Igepal, supplied with 1 mM PMSF. The supernatant was obtained by centrifugation at 50,000 g for 30 minutes and followed by incubation with 8 mL of Ni-NTA His Bind resin (Novagen) at 4° C. for one hour. A second step 50 mL wash buffer (with 100 mM NaCl and 5 mM imidazole) was applied after initial wash with the lysis buffer. Protein was eluted by 200 mM imidazole pH=8.5, 100 mM NaCl and 7.5% glycerol and directly cleared by passing 10 mL QFF column. The salt concentration and the pH value of the protein flow through were adjusted to 50 mM and 7.5 by dilution, and then loaded to 1 mL SP FF column. The protein was further gel-filtered in an equilibrium buffer of 20 mM TrisHCl pH=8.5, 150 mM NaCl, 7.5% glycerol and 2 mM DTT. The monomeric unphosphorylated c-Met protein was concentrated to 30 mg/mL for storage at −80° C.
Recombinant unphosphorylated c-Met comprising residues 1038-1346 (12.5 ng) was pre-incubated with increasing concentrations of compounds for 15 minutes at room temperature. Following preincubation with compounds, 100 μM of IGF-1Rtide substrate and 100 μM ATP containing 2.5 μCi [^33P-γATP] was added to the mixture. The reaction was carried out for 30 minutes in a Reaction Buffer containing 8 mM MOPS-NaOH pH=7.0, 200 μM EDTA, 5 mM Magnesium acetate, 200 μM dithiothreitol (DTT) and 10 mM Na3VO4. The reaction was then terminated with 10 μL of 3% phosphoric acid. Ten μL were transferred onto a filterplate and were washed 3-times with 1% phosphoric acid; counts were read with a microbeta counter, and IC50 for c-Met inhibition was determined for each compound.

HT29 cells [3] = assay: Annexin V-Fluos cell death high content imaging after met siRNA transfection; assay type: cell-based; conditions: increased concentrations of caspase inhibitor for 1 additional day after transfection
Procedure: Exponentially growing HT29 cells were plated in black 96-well plates at 5,000 cells/well overnight in medium with 10% FBS. The next day, cells were transiently transfected for 2 days using DharmaFECT 4 reagent with a pool of four met-specific 21-nucleotide RNA oligonucleotides forming a 19-bp duplex core with 2-nucleotide 3′ overhang in combination (Dharmacon, Inc., Lafayette, Colo.). Transfection of gapdh siRNA (Dharmacon, Inc.) and of a non-targeting siRNA under the same conditions was done in parallel as controls (Dharmacon, Inc.). Cells were then incubated in the absence or the presence of increasing concentrations of ZvAD-FMK, an irreversible caspase inhibitor for 1 additional day. Cells were incubated for at least 10 minutes in a labeling solution (10 mM HEPES, 140 mM NaCl and 6 mM CaCl2) containing […] Hoescht 33342 (blue channel; Molecular Probes/Invitrogen Corp., Natick, Mass.), 500 times diluted Annexin V-Fluos (green channel; Roche Applied Science, Indianapolis, Ind.) and 1 μg/ml propidium iodide (red channel; Roche Applied Science). High content image acquisition and analysis were carried out using a Beckman Coulter IC100 Cytometer. The program was set to take four images per well. […] Images were processed and numbers of positive cells for each channel and each condition were determined using Cytoshop 2.1 software (Beckman Coulter, Inc.). […]

[4] = Homo sapiens, HT-29, 24 hours treatment
[5] = 24 hours treatment, read-out: HT-29, IC50

| Molecule | melting point [°C] | pIC50 (HT29 cells [1]; [4]) | pIC50 [2] | levels of cell death in met siRNA transfected cells (HT29 cells [3]) | pIC50 (HT29 cells [1]; [5]) |
| --- | --- | --- | --- | --- | --- |
| c1ccc2c([C@@H]3CNC[C@H]3c3cn4c5c(cccc35)CCC4)c[nH]c2c1 (as salt: HCl) [Example 7, 1-[(3R,4R)-4-(1H-indol-3-yl)-pyrrolidin-3-yl]-5,6-dihydro-4H-pyrrolo[3,2,1-ij]quinoline] | 239 to 240 | – | – | – | – |
| CC(C)S(=O)(=O)N1C[C@@H](c2c[nH]c3ccccc23)[C@H](c2cn3c4c(cccc24)CCC3)C1 [Example 10, 1-[(3R,4R)-4-(1H-indol-3-yl)-1-(propane-2-sulfonyl)-pyrrolidin-3-yl]-5,6-dihydro-4H-pyrrolo[3,2,1-ij]quinoline] | 100 to 115 | ≤ 5.00 | ≤ 5.00 | – | – |
| O=C(C1CCC1)N1C[C@@H](c2c[nH]c3ccccc23)[C@H](c2cn3c4c(cccc24)CCC3)C1 [Example 11, cyclobutyl-[(3R,4R)-3-(5,6-dihydro-4H-pyrrolo[3,2,1-ij]quinolin-1-yl)-4-(1H-indol-3-yl)-pyrrolidin-1-yl]-methanone] | 253 to 255 | ≤ 5.00 | ≤ 5.00 | – | – |
| CC(C)(C)CC(=O)N1C[C@@H](c2c[nH]c3ccccc23)[C@H](c2cn3c4c(cccc24)CCC3)C1 [Example 12, 1-[(3R,4R)-3-(5,6-dihydro-4H-pyrrolo[3,2,1-ij]quinolin-1-yl)-4-(1H-indol-3-yl)-pyrrolidin-1-yl]-3,3-dimethyl-butan-1-one] | 202 to 204 | ≤ 5.00 | ≤ 5.00 | – | – |
| COC(=O)C[C@H](NC(=O)[C@H](C)NC(=O)[C@@H](NC(=O)OCc1ccccc1)C(C)C)C(=O)CF [ZvAD-FMK] (Cbz-Val-Ala-Asp(OMe)-CH2F) | – | – | – | decreased the levels of cell death | – |
| (3R,4R)-4-(5,6-dihydro-4H-pyrrolo[3,2,1-ij]quinolin-1-yl)-3-(1H-indol-3-yl)-5-thioxo-pyrrolidin-2-one and (3R,4R)-3-(5,6-dihydro-4H-pyrrolo[3,2,1-ij]quinolin-1-yl)-4-(1H-indol-3-yl)-5-thioxo-pyrrolidin-2-one (1/1 mixture) [Example 2] | – | – | ≥ 6.00 | – | ≥ 6.00 |
| (3R,4R)-4-(5,6-dihydro-4H-pyrrolo[3,2,1-ij]quinolin-1-yl)-3-(1H-indol-3-yl)-pyrrolidin-2-one and (3R,4R)-3-(5,6-dihydro-4H-pyrrolo[3,2,1-ij]quinolin-1-yl)-4-(1H-indol-3-yl)-pyrrolidin-2-one (1/1 mixture) [Example 3] | – | – | ≤ 5.00 | – | ≥ 6.00 |

Now from value to molecule, other results behind:

| melting point [°C] | pIC50 (HT29 cells [1]; [4]) | pIC50 [2] | Molecule | levels of cell death in met siRNA transfected cells (HT29 cells [3]) | pIC50 (HT29 cells [1]; [5]) |
| --- | --- | --- | --- | --- | --- |
| 260 to 262 | ≥ 6.00 | ≤ 5.00 | O=C1NCC(c2cn3c4c(cccc24)CCC3)C1c1c[nH]c2ccccc12 (mixture of isomers) [Example 1, 4-(5,6-dihydro-4H-pyrrolo[3,2,1-ij]quinolin-1-yl)-3-(1H-indol-3-yl)-pyrrolidin-2-one] | – | – |
| 241 to 243 | ≥ 6.00 | 5.00 to 6.00 | O=C1NC[C@@H](c2c[nH]c3ccccc23)[C@@H]1c1cn2c3c(cccc13)CCC2 (racemic) [Example 4, (±)-trans-3-(5,6-dihydro-4H-pyrrolo[3,2,1-ij]quinolin-1-yl)-4-(1H-indol-3-yl)-pyrrolidin-2-one] | – | – |
| 82 to 85 | ≤ 5.00 | – | O=C1NC[C@@H](c2cccc(C(F)(F)F)c2)[C@@H]1c1cn2c3c(cccc13)CCC2 (racemic) [Example 5, (±)-trans-3-(5,6-Dihydro-4H-pyrrolo[3,2,1-ij]quinolin-1-yl)-4-(3-trifluoromethyl-phenyl)-pyrrolidin-2-one] | – | – |
| 191 to 194 | ≤ 5.00 | – | COc1cccc([C@@H]2CNC(=O)[C@H]2c2cn3c4c(cccc24)CCC3)c1 (racemic) [Example 6, (±)-trans-3-(5,6-Dihydro-4H-pyrrolo[3,2,1-ij]quinolin-1-yl)-4-(3-methoxy-phenyl)-pyrrolidin-2-one] | – | – |
| – | ≥ 6.00 | ≤ 5.00 | c1ccc2c([C@@H]3CNC[C@H]3c3cn4c5c(cccc35)CCC4)c[nH]c2c1 [Example 7, 1-[(3R,4R)-4-(1H-indol-3-yl)-pyrrolidin-3-yl]-5,6-dihydro-4H-pyrrolo[3,2,1-ij]quinoline] | – | – |
| 278 to 279 | ≤ 5.00 | ≤ 5.00 | CCNC(=O)N1C[C@@H](c2c[nH]c3ccccc23)[C@H](c2cn3c4c(cccc24)CCC3)C1 [Example 8, (3R,4R)-3-(5,6-dihydro-4H-pyrrolo[3,2,1-ij]quinolin-1-yl)-4-(1H-indol-3-yl)-pyrrolidine-1-carboxylic acid ethylamide] | – | – |
| 115 to 125 | ≤ 5.00 | ≤ 5.00 | O=S(=O)(c1ccccc1)N1C[C@@H](c2c[nH]c3ccccc23)[C@H](c2cn3c4c(cccc24)CCC3)C1 [Example 9, 1-[(3R,4R)-1-benzenesulfonyl-4-(1H-indol-3-yl)-pyrrolidin-3-yl]-5,6-dihydro-4H-pyrrolo[3,2,1-ij]quinoline] | – | – |
